Results reported in patent US20120239131A1, “METHODS AND APPARATUS FOR TREATMENT OF ANEURYSMAL TISSUE” (Medtronic Vascular, Inc., priority 2011, published 2012).
“Also recorded” adds a separate entry of the source.

Key:
Format in all cases: in vivo, ApoE−/− mice
aneurysm = assay: Aneurysm incidence over time, ApoE−/−+Ang II AAA model; conditions: aneurysm = dissection or more than 50% increase in diameter; versus doxycycline and saline control
Experimental: (§1) ApoE−/− mice used in this study were divided into different pretreatment groups: 1) Fluvastatin-MF; 2) Doxycycline-MD; 3) Irbesartan-MI; 4) Telmisartan-MT; 5) Control (water) and fed medicated chow or medicated drinking water 1 week prior to pump implantation. AngII (1000 ng·kg^−1 of body weight·min^−1) was infused subcutaneously via Alzet mini-osmotic pumps for 28 days. All mice were maintained on the medicated chow (MI & MT) or medicated drinking water (MF & MD) treatments which were delivered daily for a total of 28 days following pump implantation.
(§2) In order to determine the effect of the various treatments on the progressive enlargement of the experimental AAAs the mice were followed with high frequency trans-abdominal ultrasound. Maximum aortic diameter was measured and recorded prior to pump implantation and then at 3, 7, 14, 21, and 28 days. All mice were sacrificed 28 days after pump implantation. Aortae were harvested and subjected to either histological analysis (Elastic Masson trichome, MAC2, CD31 and TUNEL staining) and analysis of mural gene expression. Plasma drug concentrations of experimental compounds were quantified on the day of sacrifice using high performance liquid chromatography (HPLC).
Aneurysm was defined as either the presence of dissection or more than 50% increase in diameter.

AAA = assay: Aortic diameter by ultrasonography, ApoE−/−+Ang II AAA model; conditions: pretreatment 1 week before Ang II infusion, followed to 28 days; versus control and doxycycline
Source text: The ApoE^−/−+Ang II AAA model is well established and supported by current scientific literature. Mice genetically predisposed to hypercholesterolemia develop aneurysms when treated with angiotensin II. Aneurysms generally develop within the first week after pump implantation and share many important pathologic characteristics with human AAA disease. ApoE−/− mice used in this study were divided into different pretreatment groups: 1) Fluvastatin-MF; 2) Doxycycline-MD; 3) Irbesartan-MI; 4) Telmisartan-MT; 5) Control (water) and fed medicated chow or medicated drinking water 1 week prior to pump implantation. AngII (1000 ng·kg^−1 of body weight·min^−1) was infused subcutaneously via Alzet mini-osmotic pumps for 28 days. All mice were maintained on the medicated chow (MI & MT) or medicated drinking water (MF & MD) treatments which were delivered daily for a total of 28 days following pump implantation. In order to determine the effect of the various treatments on the progressive enlargement of the experimental AAAs the mice were followed with high frequency trans-abdominal ultrasound. Maximum aortic diameter was measured and recorded prior to pump implantation and then at 3, 7, 14, 21, and 28 days. All mice were sacrificed 28 days after pump implantation. Aortae were harvested and subjected to either histological analysis (Elastic Masson trichome, MAC2, CD31 and TUNEL staining) and analysis of mural gene expression. Plasma drug concentrations of experimental compounds were quantified on the day of sacrifice using high performance liquid chromatography (HPLC).

[1] = Plasma drug content by HPLC; conditions: mouse plasma on day of sacrifice
Experimental: as §2

[2] = tested on: genes involved in the pathophysiology of AAA; assay: Drug inhibition effect on differentially expressed genes, overall
Experimental: as §1, §2
(§3) Total RNA was extracted from homogenized aortas using the Qiazol lysis reagent and RNeasy Lipid Tissue Mini kit. DNAse treatment was included in the procedure. RNA concentration was determined utilizing the Quant iT RNA assay kit. Complimentary deoxyribonucleic acid (cDNA) was synthesized from 1 μg RNA using High reverse cDNA transcription kit. Briefly the reaction tubes containing RNA, reverse transcriptase, buffer, RNAse inhibitor, and nuclease free water were incubated at 25° C. for 10 minutes to allow annealing. Reverse transcription was performed at 37° C. for 120 min, followed by a 5 sec incubation at 85° C. to inactivate the reverse transcriptase enzyme. The cDNA samples were cooled at 4° C. and stored at −80° C. until further use.
(§4) Real time PCR was performed using a 384-well Taqman low density array (TLDA) card. Each sample specific PCR mix contained 50 ng of total RNA converted to cDNA. The PCR reaction for Taqman assays contained 50 μl Master Mix (Taqman Universal PCR Master Mix,) and 50 ul of cDNA and RNAase free water. Assays were performed to include appropriate controls (no template control). The RT-PCR protocol included an initial step of 50° C. (2 minutes) […], denaturation by a hot start at 95° C. for 10 min, followed by 40 cycles of a 2 step program (denaturation at 95° C. for 15 secs for primer annealing/extension at 60° C. for 1 min). Fluorescence data was collected at 60° C. Fluorescence was quantified with ABI PRISM 7900HT Sequence Detection System. To verify amplification of a specific target cDNA, data generated was analyzed using SDS 2.2.3 software (Sequence Detection System Software, Applied Biosystems). For all amplification plots, the baseline data were set with the automatic CT function available with SDS 2.2.3 calculating the optimal baseline range and threshold value by using the AutoCT algorithm. According to the manufacturer's instruction, a CT value of ≧39 corresponds to nonspecific amplification marking the limits of detection. For endogenous control GAPDH was normalized to B2M. For relative quantification (RQ), pooled ApoE−/− control was used as the calibrator (with expression equal to 1).

Runx3 = assay: Aortic mural gene expression, RT-PCR (TLDA); conditions: fold change over ApoE−/− control; aorta, 28 days Ang II infusion
Experimental: as §1, §2, §3, §4

IL-7 = assay: Aortic mural gene expression, RT-PCR (TLDA); conditions: fold change over ApoE−/− control; aorta, 28 days Ang II infusion
Experimental: as §1, §2, §3, §4

TNF-α = assay: Aortic mural gene expression, RT-PCR (TLDA); conditions: fold change over ApoE−/− control; aorta, 28 days Ang II infusion
Experimental: as §1, §2, §3, §4

Cathepsin B = assay: Aortic mural gene expression, RT-PCR (TLDA); conditions: fold change over ApoE−/− control; aorta, 28 days Ang II infusion
Experimental: as §1, §2, §3, §4

ITGAL = assay: Aortic mural gene expression, RT-PCR (TLDA); conditions: fold change over ApoE−/− control; aorta, 28 days Ang II infusion
Experimental: as §1, §2, §3, §4

CCR5 = assay: Aortic mural gene expression, RT-PCR (TLDA); conditions: fold change over ApoE−/− control; aorta, 28 days Ang II infusion
Experimental: as §1, §2, §3, §4

CCL2 = assay: Aortic mural gene expression, RT-PCR (TLDA); conditions: fold change over ApoE−/− control; aorta, 28 days Ang II infusion
Experimental: as §1, §2, §3, §4

TIMP2 = assay: Aortic mural gene expression, RT-PCR (TLDA); conditions: fold change over ApoE−/− control; aorta, 28 days Ang II infusion
Experimental: as §1, §2, §3, §4

CCR2 = assay: Aortic mural gene expression, RT-PCR (TLDA); conditions: fold change over ApoE−/− control; aorta, 28 days Ang II infusion
Experimental: as §1, §2, §3, §4

Cybb = assay: Aortic mural gene expression, RT-PCR (TLDA); conditions: fold change over ApoE−/− control; aorta, 28 days Ang II infusion
Experimental: as §1, §2, §3, §4

Fibronectin -1 = assay: Aortic mural gene expression, RT-PCR (TLDA); conditions: fold change over ApoE−/− control; aorta, 28 days Ang II infusion
Experimental: as §1, §2, §3, §4

Vav1 = assay: Aortic mural gene expression, RT-PCR (TLDA); conditions: fold change over ApoE−/− control; aorta, 28 days Ang II infusion
Experimental: as §1, §2, §3, §4

Tgfβ1 = assay: Aortic mural gene expression, RT-PCR (TLDA); conditions: fold change over ApoE−/− control; aorta, 28 days Ang II infusion
Experimental: as §1, §2, §3, §4

MAPK8 = assay: Aortic mural gene expression, RT-PCR (TLDA); conditions: fold change over ApoE−/− control; aorta, 28 days Ang II infusion
Experimental: as §1, §2, §3, §4

MMP-8 = assay: Aortic mural gene expression, RT-PCR (TLDA); conditions: fold change over ApoE−/− control; aorta, 28 days Ang II infusion
Experimental: as §1, §2, §3, §4

CXCR4 = assay: Aortic mural gene expression, RT-PCR (TLDA); conditions: fold change over ApoE−/− control; aorta, 28 days Ang II infusion
Experimental: as §1, §2, §3, §4

ITGB2 = assay: Aortic mural gene expression, RT-PCR (TLDA); conditions: fold change over ApoE−/− control; aorta, 28 days Ang II infusion
Experimental: as §1, §2, §3, §4

Osteopontin = assay: Aortic mural gene expression, RT-PCR (TLDA); conditions: fold change over ApoE−/− control; aorta, 28 days Ang II infusion
Experimental: as §1, §2, §3, §4

LOX = assay: Aortic mural gene expression, RT-PCR (TLDA); conditions: fold change over ApoE−/− control; aorta, 28 days Ang II infusion
Experimental: as §1, §2, §3, §4

HMOX 1 = assay: Aortic mural gene expression, RT-PCR (TLDA); conditions: fold change over ApoE−/− control; aorta, 28 days Ang II infusion
Experimental: as §1, §2, §3, §4

MMP-12 = assay: Aortic mural gene expression, RT-PCR (TLDA); conditions: fold change over ApoE−/− control; aorta, 28 days Ang II infusion
Experimental: as §1, §2, §3, §4

Cathepsin S = assay: Aortic mural gene expression, RT-PCR (TLDA); conditions: fold change over ApoE−/− control; aorta, 28 days Ang II infusion
Experimental: as §1, §2, §3, §4

Rac2 = assay: Aortic mural gene expression, RT-PCR (TLDA); conditions: fold change over ApoE−/− control; aorta, 28 days Ang II infusion
Experimental: as §1, §2, §3, §4

Q: For `CCCCC1=NC2(CCCC2)C(=O)N1Cc1ccc(-c2ccccc2-c2nnn[nH]2)cc1` [Irbesartan], which “Inhibition of aneurysm development (aneurysm incidence)” value (aneurysm) is on record?
A: The value was “effective in inhibiting aneurysm development; also recorded: inhibited aneurysm development well”.

Q: What about the “Inhibition of aneurysm development/growth (aortic diameter)” value (AAA) of the same molecule?
A: Its value is “effective in inhibiting/preventing aneurysm development”.

Q: What about the Plasma drug content [1] of the same molecule?
A: The Plasma drug content was “lower plasma concentration”.

Q: And the “Down-regulation of genes involved in the pathophysiology of AAA” value ([2]; ApoE−/− + Ang II AAA model, summary of Table 2)?
A: Its value is “down-regulating the expression of genes”.

Q: And the “Total Score” value ([2]; sum of heat map grades over 25 genes, ApoE−/− + Ang II group scored 55)?
A: The value was 7.

Q: What about the Runx3 expression (Runx3) of the same molecule?
A: Its Runx3 expression is “− (0 to 1 = −)”.

Q: And the IL-7 expression (IL-7)?
A: The IL-7 expression was “− (0 to 1 = −)”.

Q: And the TNF-α expression (TNF-α)?
A: The TNF-α expression was “− (0 to 1 = −)”.

Q: What about the “Cathepsin B expression” value (Cathepsin B) of the same molecule?
A: The value was “− (0 to 1 = −)”.

Q: What about the ITGAL expression (ITGAL) of the same molecule?
A: The ITGAL expression was “− (0 to 1 = −)”.

Q: What about the CCR5 expression (CCR5) of the same molecule?
A: The CCR5 expression was “− (0 to 1 = −)”.

Q: And the CCL2 expression (CCL2)?
A: Its CCL2 expression is “− (0 to 1 = −)”.

Q: What about the TIMP2 expression (TIMP2) of the same molecule?
A: Its TIMP2 expression is “− (0 to 1 = −)”.

Q: And the CCR2 expression (CCR2)?
A: The CCR2 expression was “− (0 to 1 = −)”.

Q: What about the Cybb expression (Cybb) of the same molecule?
A: Its Cybb expression is “− (0 to 1 = −)”.

Q: What about the “Fibronectin -1 expression” value (Fibronectin -1) of the same molecule?
A: The value was “− (0 to 1 = −)”.

Q: And the Vav1 expression (Vav1)?
A: Its Vav1 expression is “− (0 to 1 = −)”.

Q: And the Tgfβ1 expression (Tgfβ1)?
A: The Tgfβ1 expression was “− (0 to 1 = −)”.

Q: And the MAPK8 expression (MAPK8)?
A: The MAPK8 expression was “− (0 to 1 = −)”.

Q: What about the MMP-8 expression (MMP-8) of the same molecule?
A: The MMP-8 expression was “++ (1.51 to 3 = ++)”.

Q: What about the CXCR4 expression (CXCR4) of the same molecule?
A: The CXCR4 expression was “− (0 to 1 = −)”.

Q: And the ITGB2 expression (ITGB2)?
A: Its ITGB2 expression is “− (0 to 1 = −)”.

Q: What about the Osteopontin expression (Osteopontin) of the same molecule?
A: Its Osteopontin expression is “++ (1.51 to 3 = ++)”.

Q: What about the LOX expression (LOX) of the same molecule?
A: The LOX expression was “− (0 to 1 = −)”.

Q: And the “HMOX 1 expression” value (HMOX 1)?
A: Its value is “− (0 to 1 = −)”.

Q: And the MMP-12 expression (MMP-12)?
A: The MMP-12 expression was “+++ (3.1 to 10 = +++)”.

Q: And the “Cathepsin S expression” value (Cathepsin S)?
A: Its value is “− (0 to 1 = −)”.

Q: What about the Rac2 expression (Rac2) of the same molecule?
A: The Rac2 expression was “− (0 to 1 = −)”.
